Patent US20210017200A1, “Hydrocarbyl Tin Complex with Antitumor Activity and Preparation Method Thereof” (priority 2020, published 2021)

Columns and labels:
Format in all cases: cell-based
[1] = test system: HepG2 (liver cancer cells); conditions: MTT, 72 hours
Experimental: (§1) MCF-7, HT-29, A549 and HepG2 cells are got from American Tissue Culture Collection, which are cultured with the culture medium containing 10% bovine fetal serum in a CO2-containing incubator at 37° C. The MTT method is used to detect cell proliferation and growth inhibition. The number of experimental cells is adjusted to obtain the absorbance at 570 nm, 6 concentrations are set for the compound test solution (0.1 nmol/L˜10 μmol/L). The cells are treated for 72 hours. At least 3 parallel experiments and 3 repeated experiments are conducted for each concentration. The IC50 value is determined by statistical analysis.
(§2) Taking cisplatin as the contrast, the in-vitro growth inhibitory activity of Compound 1 and Compound 2 on tumor cells are tested, including MCF7 (human breast cancer cells), HT-29 (human colon cancer cells), A549 (human lung cancer cells) and HepG2 (liver cancer cells).

[2] = test system: A549 (human lung cancer cells); conditions: MTT, 72 hours
Experimental: as §1, §2

[3] = test system: MCF7 (human breast cancer cells); conditions: MTT, 72 hours
Experimental: as §1, §2

[4] = test system: HT-29 (human colon cancer cells); conditions: HT-29 cells, MTT, 72 hours
Experimental: as §1, §2

## Tri-n-butyltin (IV) (4-methoxyphenyl) Acetylenyl Phosphonic Acid Derivatives [Compound 1]
[1]
  IC50: 329 nM
[2]
  IC50: 243 nM
[3]
  IC50: 853 nM
[4]
  IC50: 65 nM
